Patent US7803557B2, “Methods for identification of eicosapentaenoic acid analogs using anti-inflammatory receptors” (The Brigham and Women's Hospital, Inc., priority 2003, dated 2010)
Where two headings read alike, the source gives them in different places.

Legend:
[1] = test system: leukocyte infiltration in zymosan-induced peritonitis; assay: Zymosan induced peritonitis (leukocyte infiltration); type: in vivo, mouse; settings: for inhibition of leukocyte recruitment: 100 ng/mouse intravenously, 2 h
Description: For peritonitis, 100 ng/mouse of Resolvin E1 or related structures was injected into tail vein and followed by 1 ml zymosan A (1 mg/ml) into the peritoneum. Peritoneal lavages were collected at 2 h and cells were enumerated.
18R-HEPE (100 ng), Resolvin E1 (100 ng), or Indomethacin (100 ng) was injected intravenously into mouse tails followed by zymosan A into the peritoneum. Mice were sacrificed, and peritoneal lavages were collected (2 h) and cells enumerated (n=3).

[2] = test system: HEK-Reso ER1 stable transformants; assay: Calcium mobilization in HEK-Reso ER1 stable transformants; type: cell-based, human
[3] = test system: peripheral blood monocytes; assay: MAP kinase (ERK) activation in peripheral blood monocytes; type: cell-based, human; settings: 100 nM
Description: (§1) MAP kinase activation in monocytes and HEK293 cells after treatment with 100 nM of each compound was determined. After incubations, cells were lysed in cold lysis buffer (50 mM Tris-HCl, pH 8.0, 150 mM NaCl, 0.5 mM EDTA, 1.0% NP-40, 0.5% sodium deoxycolate, 10 mM NaF, 10 mM sodium pyrophosphate) containing protease inhibitor cocktail (Sigma). […] of protein was separated on SDS-PAGE and immunoblot was performed using anti-phospho-p44/42 MAP kinase (Cell Signaling) and anti-ERK (Santa Cruz) antibodies. For PTX treatment, HEK-Reso ER1 cells were incubated with or without PTX (200 ng/ml) for 24 h at 37° C. and ERK activation was monitored by addition of Resolvin E1 (100 nM) for 5 min.

[4] = test system: HEK293-Reso ER1 cells; assay: MAP kinase (ERK) activation in HEK293-Reso ER1 cells; type: cell-based, human
Description: as §1
(§2) FIG. 4d illustrate effects of PTX on Resolvin E1 induced activation and NF-kB inhibition. In—(a) HEK-hReso ER1 cells were incubated with or without PTX (200 ng/ml) for 24 h at 37 C and ERK activation was monitored by addition of Resolvin E1 (100 nM) for 5 min. In (b) HEK293 cells were transiently transfected with pcDNA-hReso ER1, pNF-kB-luciferase and pRL-TK. After 24 h with or without PTX (200 ng/ml), cells were exposed to Resolvin E1 (50 nM) for 30 min, stimulated with TNF-a (1.0 ng/ml) for 5 h, and luciferase activity was measured.

[5] = LC-MS/MS analysis of Resolvin E1 in human plasma; type: in vivo; settings: oral, healthy human volunteers given EPA and aspirin, 6 donors
Description: Human plasma samples were collected at 4 hours after oral administration of fish oil supplement (Fish Oil Concentrate, Walgreens) containing EPA (1 g) and DHA (0.7 g) followed by aspirin (160 mg) at 3 h in six healthy volunteers. Plasma samples were extracted by C18 solid phase extraction with d4-LTB4 (Cascade) as internal standard for LC-MS/MS analysis (7) using a Finnigan LCQ liquid chlomatography ion trap tandem mass spectrometer equipped with a LUNA C18-2 (100×2 mm×[…]) column and UV diode array detector using mobile phase (methanol:water:acetate at 65:35:0.01) from 0 to 8 min, ramped to methanol 8 to 30 min, with a 0.2 ml/min flow rate.

[6] = test system: mock-transfected HEK293 cells; assay: MAP kinase (ERK) activation in mock-transfected HEK293 cells; type: cell-based, human; settings: 100 nM
Description: as §1

[7] = target: recombinant LTB4 receptor BLT 1 (Homo sapiens, UniProt Q15722); settings: higher concentrations; reference (7); cited from earlier work
recombinant LTB4 receptor BLT 1, sequence (Q15722 whole entry): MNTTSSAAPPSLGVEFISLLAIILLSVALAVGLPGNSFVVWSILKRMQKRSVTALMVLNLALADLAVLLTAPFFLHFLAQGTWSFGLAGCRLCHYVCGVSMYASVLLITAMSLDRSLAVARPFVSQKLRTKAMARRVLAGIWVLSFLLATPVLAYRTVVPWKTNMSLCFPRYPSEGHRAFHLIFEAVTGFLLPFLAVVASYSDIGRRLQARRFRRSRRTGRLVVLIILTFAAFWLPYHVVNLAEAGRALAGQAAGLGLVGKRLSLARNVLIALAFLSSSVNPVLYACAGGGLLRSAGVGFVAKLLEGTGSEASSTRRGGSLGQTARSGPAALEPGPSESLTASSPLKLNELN

[8] = test system: human peripheral blood monocytes; assay: Calcium mobilization in human peripheral blood monocytes; type: cell-based
[9] = target: T1, Reso ER1 (Homo sapiens, UniProt Q99788); assay: [35S]-GTPgS binding assay, membranes expressing Reso ER1; type: biochemical; set-up: expressed in transfected cells; settings: isolated membranes from cells expressing Reso ER1; concentration-dependent
T1 sequence (Q99788 1-373): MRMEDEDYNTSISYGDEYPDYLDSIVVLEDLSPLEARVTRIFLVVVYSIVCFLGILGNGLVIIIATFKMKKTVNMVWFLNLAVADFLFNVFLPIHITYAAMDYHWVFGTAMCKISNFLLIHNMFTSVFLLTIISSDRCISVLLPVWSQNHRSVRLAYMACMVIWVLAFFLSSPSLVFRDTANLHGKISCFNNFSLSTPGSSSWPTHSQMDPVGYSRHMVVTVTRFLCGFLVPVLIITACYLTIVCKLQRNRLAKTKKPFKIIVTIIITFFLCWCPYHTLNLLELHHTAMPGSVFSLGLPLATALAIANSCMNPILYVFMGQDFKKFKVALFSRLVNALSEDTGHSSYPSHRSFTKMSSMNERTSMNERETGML
Description: HEK293 cells stably expressing human Reso ER1 were homogenized in ice-cold TED buffer (20 mM Tris-HCl pH7.5/1 mM EDTA/5 mM MgCl2/1 mM DTT). Membrane fraction ([…]) was incubated in […] of GTP-binding buffer (50 mM Hepes, pH7.5/100 mM NaCl/1 mM EDTA/5 mM MgCl2/1 mM DTT) containing 0.1 nM [^35S]-GTPgS (>1000 Ci/mmol, Amersham) and […] for 30 min at 30° C. The bound and unbound [35S]-GTPgS was separated by rapid filtration through GF/C filters, and counted by liquid scintillation. Nonspecific binding was determined in the presence of […] unlabeled GTPgS. Basal [^35S]-GTP-gS binding was 81.6+1.5 cpm/mg protein.

[10] = test system: leukocyte infiltration in TNF-a induced dorsal air pouch; assay: Murine dorsal air-pouch model (TNF-a induced leukocyte infiltration); type: in vivo, mouse; set-up: inhibition of leukocyte recruitment: dose or concentration left out as unconfirmed
Description: Dorsal air pouches were raised on male FvB mice (6-8 wk) by injecting 3 ml of sterile air subcutaneously on days 0 and 3. On day 6, 100 ng/mouse of compounds were injected into tail vein. Inflammation in the air-pouch was induced by intrapouch injection of mouse recombinant TNF-a (100 ng/pouch), and pouch lavages were collected at 4 h and cells were enumerated.

[11] = test system: mouse splenic CD11c+ DCs; assay: IL-12p40 production by isolated splenic CD11c+ DCs stimulated with STAg; type: cell-based
Description: (§3) Experiments were performed essentially as in (19). STAg was prepared from sonicated T. gondii (RH strain) tachzoytes. For isolated DC experiments, 70-85% CD11c positive DCs were isolated from spleen. CD11c+DC suspensions (1.0×10^6 cells/ml) were spread into 96-well plates and incubated for 24 h with Resolvin E1 before the addition of STAg ([…]). After overnight culture, supernatants were collected and IL-12p40 was measured with a sandwich ELISA. For in vivo treatments, C57BL/6 mice (n=3 per group) were injected intravenously with 100 ng Resolvin E1. After 18 h the animals were challenged intraperitoneally with PBS (0.2 ml/mouse), STAg (5 mg/ml) and sacrificed after an additional 6 h. CD11c+DCs were isolated from spleen and IL12-p40 secretion was measured at 24 h. For DC migration, Splenic frozen section from mice treated as above but given […] of Resolvin E1 or vehicle were stained for CD11c and counterstained with hematoxylin.
Chemically synthesized siRNA for mouse Reso ER1 (5′-[…]dTdT-3′) and Non-specific control IX siRNA (5′-[…]-3′) were from Dharmacon Research. Spleen cells (1.0×10^6 cells/ml) were transfected using Chariot (Active Motif) following manufacturers' instructions. Briefly, siRNA was mixed with Chariot transfection reagent and incubated at room temperature for 30 minutes. […]

[12] = target: T1, Reso ER1; assay: NF-kB reporter gene assay, HEK293 cells transfected with Reso ER1; type: cell-based; set-up: expressed in transfected cells; host or cells: HEK293, transient transfection with pcDNA3-Reso ER1
Description: HEK293 cells (1.0′10^5 cells) were transiently transfected with 50 ng pNF-kB-luciferase (Stratagene), 500 ng of either pcDNA3 or pcDNA3-GPCRs and the internal standard pRL-TK (Promega) using Superfect transfection reagent (Qiagen). After 24 h, cells were exposed to the test compounds for 30 min, stimulated with recombinant human TNF-a (1.0 ng/ml, BD Pharmingen) for 5 h. Luciferase activity was measured by the Dual-Luciferase reporter assay system (Promega). Basal induction of luciferase activity by TNF-a was >150-fold in this system. Efficient expression of GPCRs to the cell surface was observed by immunostaining using HA-tagged GPCR constructs. For PTX treatment, HEK293 cells were treated with PTX (200 ng/ml) for 24 h before stimulation.
as §2

[13] = test system: splenic CD11c+ DCs; assay: In vivo activation of spleen dendritic cells with pathogen extract (STAg); set-up: species or system mouse; DC migration into T cell areas of the spleen: dose or concentration left out as unconfirmed; settings: STAg challenge
Description: as §3

[14] = test system: leukocyte infiltration in TNF-a induced dorsal air pouch; settings: 1.0 mg/mouse, reference (9); cited from earlier work

CCC(O)C=CC=CCC(O)C=CC=CC=CC(O)CCCC(=O)O (single isomer, unassigned) [6-trans,14-trans isomer]
reduced potency for reducing leukocyte infiltration ([1]; versus Resolvin E1): ~70%

CC[C@H](O)/C=C/C=C\C[C@@H](O)/C=C/C=C/C=C\[C@@H](O)CCCC(=O)O (single isomer, unassigned) [18S isomer]
activity compared with native Resolvin E1 containing 18R [1]: essentially equivalent activity

CC[C@@H](O)/C=C/C=C\C[C@@H](O)/C=C/C=C/C=C\[C@@H](O)CCCC(=O)O [Resolvin E1, 5S,12R,18R-trihydroxy-6Z,8E,10E,14Z,16E-eicosapentaenoic acid]
inhibition of leukocyte recruitment [1]: 50-60% | calcium mobilization [2]: did not evoke a calcium mobilization | phosphorylation of ERK MAP kinase [3]: increased phosphoryation | phosphorylation of ERK MAP kinase ([4]; 100 nM, HEK293-Reso ER1 cells): increased phosphoryation | Resolvin E1 dependent ERK activation after pertussis toxin ([4]; PTX 200 ng/ml 24 h, Resolvin E1 100 nM, 5 min): abolished | concentration at 4 h [5]: 0.1 to 0.4 ng/mL | phosphorylation of ERK MAP kinase [6]: not in mock-transfected HEK293 cells | concentration at which it interacts with recombinant BLT1 [7]: ~0.5 mM | inhibition of calcium mobilization by 100 nM LTB4 ([8]; 100 nM, data not shown, cell type not restated): did not inhibit calcium mobilization | calcium mobilization ([8]; human peripheral blood monocytes): did not evoke a calcium mobilization | specific [35S]-GTPgS binding [9]: increased selectively | inhibition of leukocyte infiltration ([10]; 100 ng/mouse, tail vein, TNF-a induced dorsal air pouch): 50-70% | IL-12p40 production by STAg ([11]; isolated mouse splenic CD11c+ DCs, within the nanomolar range): markedly inhibited | action in regulating IL-12 production from DCs after siRNA specific for mouse Reso ER1 ([11]; spleen cells transfected with siRNA, STAg stimulation): eliminated | EC50 ([12]; read-out: EC50, inhibition of TNF-a induced NF-kB activation): ~1 nM | IL-12 production in vivo ([13]; 100 ng intravenously, IL-12p40 from splenic CD11c+ DCs): blocked IL-12 production | DC migration into T cell areas of the spleen ([13]; Resolvin E1, CD11c staining): blocked

CC(=O)Oc1ccccc1C(=O)O [aspirin, reference compound]
inhibition of leukocyte recruitment [14]: 70% | inhibition at 1000 µM ([12]; HEK293, 1 mM, read-out: non-receptor dependent inhibition of NF-kB): 26.2%

C[C@@H]1C[C@H]2[C@@H]3CCC4=CC(=O)C=C[C@]4(C)[C@@]3(F)[C@@H](O)C[C@]2(C)[C@@]1(O)C(=O)CO [dexamethasone, reference compound]
inhibition of leukocyte recruitment ([10]; local administration, dorsal air pouch): 60%

COc1ccc2c(c1)c(CC(=O)O)c(C)n2C(=O)c1ccc(Cl)cc1 [indomethacin, reference compound]
inhibition of leukocyte recruitment [1]: 25%
